Measured values as given in paper PMC12720774, “Detergents alter the stability and lipid binding properties of the CD1d immunoreceptor” (Protein Science : A Publication of the Protein Society, 2025).
“And” between values parts separate entries of the source, which are not always exact repeats. Identical values can stand only once. Counter-ions that a name gives are not always drawn. Like-named read-outs stand apart in the source and are kept apart here.

Columns and labels:
[1] = approximate, ref Anatrace catalogue, cited from earlier work
CD1c = system: CD1c; parameters: method as in Mansour et al., 2016; details: ref Mansour et al., 2016; cited from earlier work
AF647‐labeled hCD1d [2] = molecular target: T1, AF647‐labeled hCD1d (Homo sapiens, UniProt P15813+P61769); assay: Microscale thermophoresis (MST) binding assay
T1 construct: TEV protease cleavage site ENLYFQS (C); BirA biotinylation site (C); His7 (C); made in house; host or cells: TurboCHO cells (GenScript)
Procedure, shortened: (§1)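 hCD1d was NHS-labeled with AF647 (~75% labeling) and held at 100 nM against rising detergent or 18:1 LPC in PBS pH 7.4. Samples were preincubated at 37°C overnight (~12 h) and read at 25°C with 20 s IR-on time. Data are mean ± SD, n = 3.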

AF647‐labeled hCD1d [3] = molecular target: T2, AF647‐labeled hCD1d (Homo sapiens, UniProt P15813); assay: Microscale thermophoresis (MST) binding assay
T2 construct: TEV protease cleavage site ENLYFQS (C); BirA biotinylation site (C); His7 (C); made in house; host or cells: TurboCHO cells (GenScript)
Procedure, shortened: as §1

hCD1d = hCD1d (Homo sapiens, UniProt P15813+P61769); assay: Detergent competition with 18:1 LPC binding to hCD1d (ITF, MST, nanoDSF); parameters: TEV protease cleavage site ENLYFQS (C); BirA biotinylation site (C); His7 (C); made in house; host or cells: TurboCHO cells (GenScript); details: 0.05% detergent
Experimental: We selected 18:1 LPC for the competition experiments since, first, a structure with hCD1d has been well characterized, and second, it binds hCD1d with moderate micromolar affinity, which is representative of many endogenous lipid antigens (Cantu et al., [2003]; López‐Sagaseta et al., [2012]). In the absence of detergent, 18:1 LPC produced concentration‐dependent changes in ITF and MST signal and decreased the melting temperature of hCD1d (ΔT m = −8.1 ± 1.7°C), indicative of specific binding and hCD1d destabilization (Figure 7c–e).
ITF spectra were recorded from 300 to 500 nm using a Horiba FL3‐21 Fluorometer with the excitation wavelength of 285 nm and excitation/emission slits of 6.2 nm. Fluorescence spectra of 50 to 100 nM hCD1d were acquired in the absence and presence of detergents in 1X PBS pH 7.4 at 25°C. Prior to data acquisition, hCD1d and detergent or lipid samples were incubated at 37°C overnight (~12 h) to simulate in vitro and in vivo loading conditions. […] For 18:1 LPC experiments, fluorescence spectra of 100 nM hCD1d were acquired in the absence and presence of 18:1 LPC in 1X PBS pH 7.4 at 25°C. […] For all ITF experiments, the change in fluorescence signal (F − F 0/F 0) was determined at 335 nm. Three replicates were performed, and data are presented as the mean ± standard deviation (n = 3). K D values were fitted with non‐linear regression in GraphPad Prism v10.1. […]

[4] = 0.001 M detergent, 100 nM AF647‐hCD1d
[5] = K D (MST), detergent with 100 nM AF647‐labeled hCD1d, 25°C, apparent
[6] = Figure 5B, detergent binding to hCD1d, read-out: MST - Kd (uM) average
[7] = detergent with 100 nM AF647‐labeled hCD1d, 25°C, apparent, read-out: K D (MST)

T1 sequence (P61769+P15813 fused): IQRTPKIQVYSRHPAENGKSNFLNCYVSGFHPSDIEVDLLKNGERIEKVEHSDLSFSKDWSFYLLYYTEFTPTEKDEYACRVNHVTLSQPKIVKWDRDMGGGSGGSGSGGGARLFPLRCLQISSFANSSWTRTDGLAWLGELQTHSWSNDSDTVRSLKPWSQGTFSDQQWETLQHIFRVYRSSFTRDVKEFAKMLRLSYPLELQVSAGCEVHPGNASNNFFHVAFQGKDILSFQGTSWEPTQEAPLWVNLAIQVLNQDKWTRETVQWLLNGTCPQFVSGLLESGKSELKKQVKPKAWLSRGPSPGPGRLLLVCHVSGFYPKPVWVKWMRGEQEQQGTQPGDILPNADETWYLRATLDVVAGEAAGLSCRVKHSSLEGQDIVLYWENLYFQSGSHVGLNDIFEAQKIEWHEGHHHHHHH
T2 sequence (P15813 whole entry, looked up): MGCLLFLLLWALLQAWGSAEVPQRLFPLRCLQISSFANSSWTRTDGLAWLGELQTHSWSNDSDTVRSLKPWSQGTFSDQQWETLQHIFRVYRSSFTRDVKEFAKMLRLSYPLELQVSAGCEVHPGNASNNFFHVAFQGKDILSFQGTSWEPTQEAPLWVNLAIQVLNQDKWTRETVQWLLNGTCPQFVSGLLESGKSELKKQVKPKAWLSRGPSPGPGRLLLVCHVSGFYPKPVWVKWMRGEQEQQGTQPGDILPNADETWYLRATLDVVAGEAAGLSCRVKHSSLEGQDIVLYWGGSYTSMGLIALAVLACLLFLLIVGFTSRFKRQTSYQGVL
Chain of hCD1d (P61769+P15813 fused): as the sequence (P61769+P15813 fused) above

Molecule	CMC [1] [µM]	CMC ([1]; weight/volume) [%]	stripping of lipid antigens from CD1c (in words) (CD1c)	Fnorm (rep 1-3) (AF647‐labeled hCD1d [2]; 3.05176e-8 M detergent)	Fnorm (rep 1-3) (AF647‐labeled hCD1d [2]; 6.10352e-8 M detergent)	Fnorm (rep 1-3) (AF647‐labeled hCD1d [2]; 1.2207e-7 M detergent)	Fnorm (rep 1-3) (AF647‐labeled hCD1d [2]; 2.44141e-7 M detergent)	Fnorm (rep 1-3) (AF647‐labeled hCD1d [2]; 4.88281e-7 M detergent)	Fnorm (rep 1-3) (AF647‐labeled hCD1d [2]; 9.76563e-7 M detergent)	Fnorm (rep 1-3) (AF647‐labeled hCD1d [2]; 1.95313e-6 M detergent)	Fnorm (rep 1-3) (AF647‐labeled hCD1d [2]; 3.90625e-6 M detergent)	Fnorm (rep 1-3) (AF647‐labeled hCD1d [2]; 7.8125e-6 M detergent)	Fnorm (rep 1-3) (AF647‐labeled hCD1d [2]; 1.5625e-5 M detergent)	Fnorm (rep 1-3) (AF647‐labeled hCD1d [2]; 3.125e-5 M detergent)	Fnorm (rep 1-3) (AF647‐labeled hCD1d [2]; 6.25e-5 M detergent)	Fnorm (rep 1-3) (AF647‐labeled hCD1d [2]; 0.000125 M detergent)	Fnorm (rep 1-3) (AF647‐labeled hCD1d [2]; 0.00025 M detergent)	Fnorm (rep 1-3) (AF647‐labeled hCD1d [2]; 0.0005 M detergent)	Fnorm (rep 1-3) (AF647‐labeled hCD1d [2]; [4])	Kd (AF647‐labeled hCD1d [3]; [5]) [µM]	other results
C[C@H](CCC(=O)NCCC[N+](C)(C)CCCS(=O)(=O)[O-])[C@H]1CC[C@H]2[C@@H]3[C@H](O)C[C@@H]4C[C@H](O)CC[C@]4(C)[C@H]3C[C@H](O)[C@]12C [CHAPS, 3‐((3‐cholamidopropyl) dimethylammonio)‐1‐propanesulfonate]	8000	0.49	not	790.173 ‰ and 791.465 ‰ and 791.791 ‰	791.241 ‰ and 791.286 ‰ and 792.264 ‰	790.851 ‰ and 791.968 ‰ and 791.334 ‰	791.909 ‰ and 789.682 ‰ and 791.374 ‰	790.852 ‰ and 792.443 ‰ and 789.72 ‰	790.963 ‰ and 791.166 ‰ and 789.816 ‰	790.601 ‰ and 790.682 ‰ and 790.374 ‰	791.182 ‰ and 790.338 ‰ and 790.7 ‰	792.893 ‰ and 791.581 ‰ and 790.149 ‰	792.783 ‰ and 794.481 ‰ and 793.14 ‰	797.777 ‰ and 796.648 ‰ and 796.885 ‰	802.833 ‰ and 802.212 ‰ and 800.436 ‰	807.041 ‰ and 807.203 ‰ and 808.474 ‰	810.973 ‰ and 810.93 ‰ and 810.716 ‰	814.652 ‰ and 812.289 ‰ and 815.372 ‰	815.189 ‰ and 817.537 ‰ and 819.368 ‰	< 200	Kd (AF647‐labeled hCD1d [3]; MST - Kd (uM) average, Figure 5B, detergent binding to hCD1d): 90.4 µM; effect of detergent on 18:1 LPC binding to hCD1d (in words) (hCD1d): did not robustly outcompete binding
Tween 20	59	0.0072	could efficiently strip lipid antigens away	810.612 ‰ and 815.192 ‰ and 809.256 ‰	813.29 ‰ and 812.34 ‰ and 811.415 ‰	817.136 ‰ and 816.199 ‰ and 816.479 ‰	815.645 ‰ and 816.365 ‰ and 812.483 ‰	818.589 ‰ and 818.547 ‰ and 817.485 ‰	822.035 ‰ and 829.676 ‰ and 823.26 ‰	824.959 ‰ and 826.615 ‰ and 828.828 ‰	831.241 ‰ and 838.502 ‰ and 830.859 ‰	839.917 ‰ and 838.414 ‰ and 840.568 ‰	845.364 ‰ and 842.629 ‰ and 839.392 ‰	839.617 ‰ and 847.737 ‰ and 840.958 ‰	842.166 ‰ and 843.948 ‰ and 838.707 ‰	841.26 ‰ and 840.691 ‰ and 839.447 ‰	843.661 ‰ and 845.01 ‰ and 840.579 ‰	843.68 ‰ and 846.334 ‰ and 839.195 ‰	842.084 ‰ and 846.496 ‰ and 844.53 ‰		Kd (AF647‐labeled hCD1d [2]; [6]): 1.79 µM; Kd (AF647‐labeled hCD1d [2]; [7]): 1.8 ± 0.5 µM; effect of detergent on 18:1 LPC binding to hCD1d (in words) (hCD1d): abolished nearly all detectable binding signals
CCCCCCCCCCCCOS(=O)(=O)O [SDS, sodium dodecyl sulfate]	1990	0.057		794.561 ‰ and 796.538 ‰ and 787.226 ‰	793.573 ‰ and 796.65 ‰ and 788.808 ‰	795.629 ‰ and 795.536 ‰ and 789.052 ‰	792.166 ‰ and 793.398 ‰ and 784.145 ‰	790.042 ‰ and 793.566 ‰ and 789.803 ‰	792.907 ‰ and 794.378 ‰ and 788.273 ‰	792.77 ‰ and 792.711 ‰ and 788.545 ‰	794.169 ‰ and 793.199 ‰ and 789.062 ‰	793.805 ‰ and 798.209 ‰ and 788.93 ‰	795.098 ‰ and 796.977 ‰ and 790.788 ‰	796.19 ‰ and 799.152 ‰ and 792.387 ‰	800.38 ‰ and 802.553 ‰ and 795.217 ‰	801.158 ‰ and 800.337 ‰ and 800.706 ‰	801.719 ‰ and 804.302 ‰ and 803.561 ‰	816.347 ‰ and 820.909 ‰ and 814.082 ‰	825.168 ‰ and 825.899 ‰ and 822.956 ‰	> 10000	binding to hCD1d by MST (in words) (AF647‐labeled hCD1d [2]): observable binding; Kd (AF647‐labeled hCD1d [3]; K D, detergent class summary, approximate, collectively from ITF and MST): 10 to 500 µM
CCCCCCCCCCCC[N+](C)(C)[O-] [LDAO, lauryldimethylamine‐N‐oxide]	1000	0.023		814.692 ‰ and 814.467 ‰ and 814.489 ‰	817.057 ‰ and 815.567 ‰ and 813.955 ‰	815.153 ‰ and 815.733 ‰ and 813.219 ‰	820.838 ‰ and 814.573 ‰ and 816.312 ‰	815.87 ‰ and 817.501 ‰ and 814.61 ‰	819.746 ‰ and 816.532 ‰ and 815.008 ‰	821.408 ‰ and 818.645 ‰ and 816.968 ‰	814.412 ‰ and 819.336 ‰ and 814.062 ‰	818.471 ‰ and 817.826 ‰ and 814.305 ‰	818.754 ‰ and 820.576 ‰ and 816.619 ‰	825.871 ‰ and 823.407 ‰ and 821.261 ‰	827.8 ‰ and 827.022 ‰ and 819.019 ‰	840.896 ‰ and 830.059 ‰ and 833.855 ‰	853.04 ‰ and 842.052 ‰ and 840.306 ‰	856.938 ‰ and 859.889 ‰ and 860.509 ‰	853.851 ‰ and 856.381 ‰ and 852.289 ‰		Kd (AF647‐labeled hCD1d [3]; [6]): 157 µM; Kd (AF647‐labeled hCD1d [3]; [7]): 157 ± 58.6 µM
